Experimental data from the supplement of paper PMC11923942.

Tests used:
[1] = GC retention time (DB-5MS, GC-APCI); higher = later elution
Procedure: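 Standards of hydrophobic organic contaminants were analysed by GC-APCI (positive mode, dry or wet source conditions) coupled to cyclic ion mobility-QTOF MS. CCS was measured for the base ion (sometimes a fragment ion) in N2 drift gas (one-pass mode, calibrated with a Waters 22-compound mix). 5 mL/min).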

[2] = collision cross section (N2, base ion); higher = larger ion cross section
Procedure: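 Standards of hydrophobic organic contaminants were analysed by GC-APCI (positive mode, dry or wet source conditions) coupled to cyclic ion mobility-QTOF MS. CCS was measured for the base ion (sometimes a fragment ion) in N2 drift gas (one-pass mode, calibrated with a Waters 22-compound mix).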

| SMILES | GC retention time [1] [min] | collision cross section [2] [Å²] |
| --- | --- | --- |
| CCCCC(CC)COC(=O)c1c(Br)c(Br)c(Br)c(Br)c1C(=O)OCC(CC)CCCC (centres undefined) [Bis(2-ethylhexyl) tetrabromophthalate] (APCI source condition: Dry, base ion: C8HBr4O3+) | 30.1 | 141.58 |
| Brc1ccc(Oc2ccc(Br)c(Br)c2)cc1Br [PBDE 77] (APCI source condition: Dry, base ion: M+.) | 23 | 164.62 |
| Clc1cccc(-c2cccc(Cl)c2Cl)c1 [PCB 20] (APCI source condition: Dry, base ion: M+.) | 16.6 | 140.68 |
| Cc1c(Br)c(Br)c(Br)c(Br)c1Br [Pentabromotoluene] (APCI source condition: Dry, base ion: M+.) | 20.1 | 140.29 |
| c1ccc2c(c1)ccc1ccc3ccccc3c12 [Benzo(c)phenanthrene] (APCI source condition: Dry, base ion: M+.) | 21.3 | 140.99 |
| Clc1ccc(C(c2ccccc2Cl)C(Cl)Cl)cc1 (centres undefined) [2,4'-DDD] (APCI source condition: Dry, base ion: [M-CHCl2]+) | 19.4 | 140.45 |
| CCCCOCCOP(=O)(OCCOCCCC)OCCOCCCC [Tris(2-butoxyethyl) phosphate] (APCI source condition: Wet, base ion: [M+H]+) | 21.1 | 198.91 |
| c1cc2cccc3c4cccc5cccc(c(c1)c23)c54 [Perylene] (APCI source condition: Dry, base ion: M+.) | 25 | 143.02 |
| O=P(OC(CCl)CCl)(OC(CCl)CCl)OC(CCl)CCl [Tris(1,3-dichloropropan-2-yl) phosphate] (APCI source condition: Wet, base ion: [M+H]+) | 20.4 | 175.08 |
| c1cc2ccc3ccc4ccc5cccc6c(c1)c2c3c4c56 [Benzo(g,h,i)perylene] (APCI source condition: Dry, base ion: M+.) | 27.1 | 150.71 |
| Clc1cccc(-c2cccc(Cl)c2Cl)c1Cl [PCB 40] (APCI source condition: Dry, base ion: M+.) | 17.9 | 144.96 |
| c1ccc2c(c1)ccc1cc3c(ccc4ccccc43)cc12 [Dibenzo(a,h)anthracene] (APCI source condition: Dry, base ion: M+.) | 27.2 | 154.91 |
